Counter-ions that a name gives are not always drawn.
Biological target: T1, human GYS1 (glycogen synthase) (Homo sapiens, UniProt P13807)
T1 construct: made in house; host or cells: HEK293T
T1 sequence (P13807 1-737): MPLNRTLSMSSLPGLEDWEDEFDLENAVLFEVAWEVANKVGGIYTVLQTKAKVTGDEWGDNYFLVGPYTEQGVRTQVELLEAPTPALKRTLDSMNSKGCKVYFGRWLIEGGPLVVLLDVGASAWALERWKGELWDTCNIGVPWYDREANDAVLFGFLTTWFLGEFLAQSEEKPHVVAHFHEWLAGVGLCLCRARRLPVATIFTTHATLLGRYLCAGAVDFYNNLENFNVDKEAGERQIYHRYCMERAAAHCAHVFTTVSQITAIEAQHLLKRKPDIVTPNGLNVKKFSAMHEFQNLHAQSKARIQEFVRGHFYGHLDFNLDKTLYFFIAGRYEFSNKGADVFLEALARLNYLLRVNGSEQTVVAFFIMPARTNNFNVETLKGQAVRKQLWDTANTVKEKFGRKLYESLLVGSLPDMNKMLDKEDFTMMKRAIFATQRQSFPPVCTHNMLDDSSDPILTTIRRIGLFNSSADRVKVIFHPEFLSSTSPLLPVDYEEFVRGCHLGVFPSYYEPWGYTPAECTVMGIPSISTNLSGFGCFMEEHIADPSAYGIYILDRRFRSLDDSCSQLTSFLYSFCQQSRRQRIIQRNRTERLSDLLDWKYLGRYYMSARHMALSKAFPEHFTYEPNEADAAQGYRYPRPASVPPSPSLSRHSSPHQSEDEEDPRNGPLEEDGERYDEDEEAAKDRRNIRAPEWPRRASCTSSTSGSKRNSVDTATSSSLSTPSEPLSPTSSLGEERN
Assay: Measurement of glycogen synthase activity
Assay type: biochemical
Details: concentration causing 50% increase in relative activity; 100% = compound of Example 1 of WO/2011/058154 at 10 μM; 10 mM Glucose-6-phosphate; 37° C. for 25 minutes (Examples 1 to 61 and 67 to 82) or 20 minutes (Examples 62 to 66); absorbance at 340 nm
Protocol: A human GYS1 expression plasmid (pCDNA3.1(+)-hGYS1) was constructed by the following method. By using a human skeletal muscle cDNA of Human MTC Panel I (Takara Bio Inc., 636742) as a template, a human GYS1 gene was amplified by a PCR method using cloning primers (Forward Primer: ATGCCTTTAAACCGCAC, Reverse Primer: TTAGTTACGCTCCTCGC). By using the amplified human GYS1 sequence as a template, restriction enzyme sequences were added by a PCR method using sub-cloning primers (Forward Primer: […], and Reverse Primer: […]), and then the human GYS1 gene was introduced between Xho I and Xba I sites of pCDNA3.1(+) (Invitrogen, V790-20).
Glycogen synthase was prepared by the following method. Human kidney-derived HEK293T cells were seeded in a dish (Thermo Fisher Scientific K.K., 168381) by using a 10% FBS-containing DMEM (Nacalai Tesque, Inc., 0845874) medium, and cultured overnight. Then, by using Lipofectamine LTX (Invitrogen, 15338-100), the cells were transfected with the human GYS1 expression vector according to the attached manual. After culturing under conditions of 37° C. and 5% CO2 for 2 days, the resultant was lysed in a lysis buffer (50 mM Tris-HCl (pH 8.0), 10 mM EDTA, 2 mM EGTA, 100 mM NaF, 1 mM PMSF, 1 mM DTT, and 1× Complete (Roche, 1873580)), homogenized, and then centrifuged at 16000×g at 4° C. for 15 minutes. The precipitated fraction re-dissolved by adding the lysis buffer was used as a glycogen synthase for evaluation.
The glycogen synthase activity was measured by the following method. To a polystyrene 96-well plate, solutions each containing 30 mM glycylglycine (pH 7.3), 40 mM KCl, 20 mM MgCl2, 9.2% DMSO containing one of the test compounds at one of various concentrations, and 10 mM Glucose-6-phosphate (Sigma-Aldrich, G7879) were added at 12 μL/well.
Next, a substrate solution containing 30 mM glycylglycine (pH 7.3), 4.3 mg/mL glycogen (Sigma-Aldrich, G8876), 21.6 mM UDP-glucose (Sigma-Aldrich, U4625), 21.6 mM phosphoenolpyruvic acid (Sigma-Aldrich, P0564), and 4.05 mM NADH (Sigma-Aldrich, N8129) was added at 18 μL/well.
Moreover, an enzyme solution containing 50 mM Tris-HCl (pH 8.0), 27 mM DTT (NACALAI TESQUE, INC., 14128-04), 0.2 mg/mL bovine serum albumin, 0.17 mg/mL glycogen synthase, and 1.5 μL pyruvate kinase/lactate dehydrogenase solution (Sigma-Aldrich, P0294) was added at 18 μL/well to prepare reaction solutions. After the reaction solutions were incubated (at 37° C. for 25 minutes for Examples 1 to 61 and 67 to 82 or at 37° C. for 20 minutes for Examples 62 to 66), the absorbance at 340 nm was measured by using Benchmark Plus (Bio-Rad Laboratories, Inc.).
The activity of each test compound was calculated by the following method. The absorbance at 340 nm of the reaction solution containing the compound and DMSO was subtracted from the absorbance at 340 nm of a reaction solution not containing the compound but containing only DMSO to calculate the change (ΔA340) in absorbance. The relative activity (%) of the test compound at each of the various concentrations was calculated, where the ΔA340 of a reaction solution containing the compound of Example 1 of WO/2011/058154 at a final concentration of 10 μM was taken as 100%. EC50 representing the concentration of the compound at which an increase in the relative activity by 50% was caused was calculated using XLfit (idbs).

EC50 | Compound
0.016 µM | CS(=O)(=O)NCCN(CC(=O)O)C(=O)c1cccc(COc2ccc(-c3cc(F)c(F)c4ccoc34)cc2)c1 [Example 16, 2-[[3-[[4-(4,5-Difluorobenzofuran-7-yl)phenoxy]methyl]benzoyl]-[2-(methanesulfonamido)ethyl]amino]acetic Acid]
0.01 µM | CSc1cc(F)c(F)cc1-c1ccc(OCc2cccc(C(=O)N(CCNS(C)(=O)=O)CC(=O)O)c2)cc1 [Example 17, 2-[[3-[[4-(4,5-Difluoro-2-methylsulfanyl-phenyl)phenoxy]methyl]benzoyl]-[2-(methanesulfonamido)ethyl]amino]acetic Acid]
0.0073 µM | CC(C)(O)CCN(CC(=O)O)C(=O)c1cccc(COc2ccc(-c3cc(F)c(F)c4ccoc34)cc2)c1 [Example 18, 2-[[3-[[4-(4,5-Difluorobenzofuran-7-yl)phenoxy]methyl]benzoyl]-(3-hydroxy-3-methyl-butyl)amino]acetic Acid]
0.0034 µM | CSc1cc(F)c(F)cc1-c1ccc(OCc2cccc(C(=O)N(CC(=O)O)Cc3ccncc3)c2)cc1 [Example 19, 2-[[3-[[4-(4,5-Difluoro-2-methylsulfanyl-phenyl)phenoxy]methyl]benzoyl]-(4-pyridylmethyl)amino]acetic Acid Trifluoroacetate]
0.0065 µM | CSc1cc(F)c(F)cc1-c1ccc(OCc2cccc(C(=O)N(CC(=O)O)Cc3ccccn3)c2)cc1 [Example 20, 2-[[3-[[4-(4,5-Difluoro-2-methylsulfanyl-phenyl)phenoxy]methyl]benzoyl]-(2-pyridylmethyl)amino]acetic Acid Trifluoroacetate]
0.015 µM | CSc1cc(F)c(F)cc1-c1ccc(OCc2cccc(C(=O)N(CCC(C)O)CC(=O)O)c2)cc1 (centres unmarked) [Example 21, 2-[[3-[[4-(4,5-Difluoro-2-methylsulfanyl-phenyl)phenoxy]methyl]benzoyl]-(3-hydroxybutyl)amino]acetic Acid]
0.013 µM | CSc1cc(F)c(F)cc1-c1ccc(OCc2cccc(C(=O)N(CC(=O)O)[C@@H](C)C(N)=O)c2)cc1 [Example 22, 2-[[(1S)-2-Amino-1-methyl-2-oxo-ethyl]-[3-[[4-(4,5-difluoro-2-methylsulfanyl-phenyl)phenoxy]methyl]benzoyl]amino]acetic Acid]
0.017 µM | COC(C)(C)CN(CC(=O)O)C(=O)c1cccc(COc2ccc(-c3cc(F)c(F)cc3SC)cc2)c1 [Example 23, 2-[[3-[[4-(4,5-Difluoro-2-methylsulfanyl-phenyl)phenoxy]methyl]benzoyl]-(2-methoxy-2-methyl-propyl)amino]acetic Acid]
0.011 µM | CCN(CC)CCN(CC(=O)O)C(=O)c1cccc(COc2ccc(-c3cc(F)c(F)cc3SC)cc2)c1 [Example 24, 2-[2-Diethylaminoethyl-[3-[[4-(4,5-difluoro-2-methylsulfanyl-phenyl)phenoxy]methyl]benzoyl]amino]acetic Acid Trifluoroacetate]
0.015 µM | CSc1cc(F)c(F)cc1-c1ccc(OCc2cccc(C(=O)N(CC(=O)O)CC(=O)N3CCCC3)c2)cc1 [Example 25, 2-[[3-[[4-(4,5-Difluoro-2-methylsulfanyl-phenyl)phenoxy]methyl]benzoyl]-(2-oxo-2-pyrrolidin-1-yl-ethyl)amino]acetic Acid]
0.014 µM | CSc1cc(F)c(F)cc1-c1ccc(OCc2cccc(C(=O)N(CCCN(C)C)CC(=O)O)c2)cc1 [Example 26, 2-[[3-[[4-(4,5-Difluoro-2-methylsulfanyl-phenyl)phenoxy]methyl]benzoyl]-[3-(dimethylamino)propyl]amino]acetic Acid Trifluoroacetate]
0.01 µM | CSc1cc(F)c(F)cc1-c1ccc(OCc2cccc(C(=O)N(CC(=O)O)CC(=O)O)c2)cc1 [Example 27, 2-[Carboxymethyl-[3-[[4-(4,5-difluoro-2-methylsulfanyl-phenyl)phenoxy]methyl]benzoyl]amino]acetic Acid]
0.01 µM | CNCCN(CC(=O)O)C(=O)c1cccc(COc2ccc(-c3cc(F)c(F)cc3SC)cc2)c1 [Example 28, 2-[[3-[[4-(4,5-Difluoro-2-methylsulfanyl-phenyl)phenoxy]methyl]benzoyl]-[2-(methylamino)ethyl]amino]acetic Acid Trifluoroacetate]
0.019 µM | CSc1cc(F)c(F)cc1-c1ccc(OCc2cccc(C(=O)N3C[C@H](O)C[C@H]3C(=O)O)c2)cc1 [Example 29, (2S,4R)-1-[3-[[4-(4,5-Difluoro-2-methylsulfanyl-phenyl)phenoxy]methyl]benzoyl]-4-hydroxy-pyrrolidine-2-carboxylic Acid]
0.015 µM | COCCCN(CC(=O)O)C(=O)c1cccc(COc2ccc(-c3cc(F)c(F)cc3SC)cc2)c1 [Example 30, 2-[[3-[[4-(4,5-Difluoro-2-methylsulfanyl-phenyl)phenoxy]methyl]benzoyl]-(3-methoxypropyl)amino]acetic Acid]
0.018 µM | CSc1cc(F)c(F)cc1-c1ccc(OCc2cccc(C(=O)N(CCS(C)(=O)=O)CC(=O)O)c2)cc1 [Example 31, 2-[[3-[[4-(4,5-Difluoro-2-methylsulfanyl-phenyl)phenoxy]methyl]benzoyl]-(2-methylsulfonylethyl)amino]acetic Acid]
0.02 µM | CSc1cc(F)c(F)cc1-c1ccc(OCc2cccc(C(=O)N(CCCS(C)(=O)=O)CC(=O)O)c2)cc1 [Example 32, 2-[[3-[[4-(4,5-Difluoro-2-methylsulfanyl-phenyl)phenoxy]methyl]benzoyl]-(3-methylsulfonylpropyl)amino]acetic Acid]
0.024 µM | CSc1cc(F)c(F)cc1-c1ccc(OCc2cccc(C(=O)N(CC(=O)O)CC3CCOCC3)c2)cc1 [Example 34, 2-[[3-[[4-(4,5-Difluoro-2-methylsulfanyl-phenyl)phenoxy]methyl]benzoyl]-(tetrahydropyran-4-ylmethyl)amino]acetic Acid]
0.019 µM | CSc1cc(F)c(F)cc1-c1ccc(OCc2cccc(C(=O)N(CC(=O)O)CC3CCNCC3)c2)cc1 [Example 35, 2-[[3-[[4-(4,5-Difluoro-2-methylsulfanyl-phenyl)phenoxy]methyl]benzoyl]-(4-piperidylmethyl)amino]acetic Acid Trifluoroacetate]
0.021 µM | CSc1cc(F)c(F)cc1-c1ccc(OCc2cccc(C(=O)N(CC(=O)O)C3CCNCC3)c2)cc1 [Example 36, 2-[[3-[[4-(4,5-Difluoro-2-methylsulfanyl-phenyl)phenoxy]methyl]benzoyl]-(4-piperidyl)amino]acetic Acid Trifluoroacetate]

Source: US20160046592A1, “PHARMACEUTICAL COMPOSITION FOR THE TREATMENT OF DIABETES” (Ajinomoto Co., Inc., priority 2013, published 2016)
